In article PMC8241176, “Preliminary study on fabrication, characterization and synergistic anti-lung cancer effects of self-assembled micelles of covalently conjugated celastrol–polyethylene glycol–ginsenoside Rh2” (Drug Delivery, 2017):

Tested on: A549 cells
Experiment: Antiproliferative effect by MTT assay
Assay type: cell-based, human
Settings: 48 h, G Rh2 6.4 μg/mL
Experimental: The human NSCLC cell line, A549, was cultured in RPMI 1640 medium containing 10% FBS at 37 °C and 5% CO2 in an incubator with saturated humidity. The medium was replaced every 2 days and the cells were passaged at the split ratio of 1:8 every 5–7 days. Cells grown to the logarithmic growth phase were harvested for further experiments.
The A549 cells were seeded in a 96-well plate at 5 × 10^3 cells/well and incubated for 24 h. The medium was then discarded and each well received 100 μL of different concentrations of CG-M, CG-Mblank, celastrol + G Rh2, celastrol and G Rh2. After 48 h of incubation, 100 μL of 0.5 mg/mL MTT in phosphate-buffered saline (PBS) was added to each well, followed by 4 h of incubation in the dark. […] The plate was shaken at low speed for 3 min, and the absorbance at 570 nm was measured using a microplate reader to calculate cell viability. Cell viability (%) = Absorbance of the drug treatment group (Adrug)/Absorbance of the control group (Acontrol) × 100. The IC50 was calculated by GraphPad prism 6.0 software (GraphPad Software Inc., San Diego, CA). The combined index (CI) was calculated with the following formula: CI = IC50 of celastrol in combination group/IC50 of celastrol + IC50 of G Rh2 in combination group/IC50 of G Rh2 (Qu et al., [2017]; Wu et al., [2017]), which represents a synergistic antitumor effect if the value is less than 1.

Structure (SMILES): CC(C)=CCC[C@](C)(O)[C@H]1CC[C@]2(C)[C@@H]1[C@H](O)C[C@@H]1[C@@]3(C)CC[C@H](O[C@@H]4O[C@H](CO)[C@@H](O)[C@H](O)[C@H]4O)C(C)(C)[C@@H]3CC[C@]12C [G Rh2, ginsenoside Rh2]
- survival rate of cells: 67.5%
